Reference: patent publication US20160185797A1, “ALKYNYL ALCOHOLS AND METHODS OF USE” (Genentech, Inc., priority 2013, published 2016)

Experiments:
[1] = molecular target: T1, nuclear factor-kappa B (NF-kB)-inducing kinase (NIK) (Homo sapiens, UniProt Q99558); assay: NIK enzyme inhibition assay (Transcreener ADP fluorescence polarization, NIK ADP-FP); type: biochemical
T1 construct: made in house; host or cells: baculovirus-infected insect cells

[2] = system: p52 (NF-kB2) nuclear translocation in HeLa cells; assay: p52 (NF-kB2) nuclear translocation assay in HeLa cells, anti-lymphotoxin beta receptor antibody stimulated (non-classical NF-kB signaling), high content imaging; type: cell-based; conditions: Homo sapiens, 100 ng/mL anti-lymphotoxin beta receptor antibody for 5 hours, read-out: p52 HeLa Transloc Assay (IC50)
In short: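 HeLa cells in 10% FBS medium were treated with compound (0.2% DMSO final) and stimulated with 100 ng/mL anti-lymphotoxin beta receptor antibody for 5 h. Fixed cells were immunostained for p52 and imaged with DRAQ5 nuclear stain. Translocation is the nuclear to cytoplasmic intensity ratio, […].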

[3] = system: REL-A (p65) nuclear translocation in HeLa cells; assay: REL-A (p65) nuclear translocation assay in HeLa cells, TNF-α stimulated (classical NF-kB signaling), high content imaging; type: cell-based; conditions: Homo sapiens, HeLa, compound 4.5 h, then 10 ng/mL TNF-α for 30 minutes, read-out: REL-A HeLa Transloc Assay (IC50)
In short: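 HeLa cells in medium with 10% fetal bovine serum were exposed to compounds (0.2% DMSO final) for 4.5 hours, then stimulated with 10 ng/mL TNF-α for 30 minutes. After fixation in 4% paraformaldehyde and permeabilization with 0.1% Triton X-100, cells were stained with 400 ng/mL anti-REL-A (p65) antibody, an Alexa488 secondary and DRAQ5. Opera imaging quantified the nuclear-to-cytoplasmic signal ratio to give IC50.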

T1 sequence (Q99558 whole entry): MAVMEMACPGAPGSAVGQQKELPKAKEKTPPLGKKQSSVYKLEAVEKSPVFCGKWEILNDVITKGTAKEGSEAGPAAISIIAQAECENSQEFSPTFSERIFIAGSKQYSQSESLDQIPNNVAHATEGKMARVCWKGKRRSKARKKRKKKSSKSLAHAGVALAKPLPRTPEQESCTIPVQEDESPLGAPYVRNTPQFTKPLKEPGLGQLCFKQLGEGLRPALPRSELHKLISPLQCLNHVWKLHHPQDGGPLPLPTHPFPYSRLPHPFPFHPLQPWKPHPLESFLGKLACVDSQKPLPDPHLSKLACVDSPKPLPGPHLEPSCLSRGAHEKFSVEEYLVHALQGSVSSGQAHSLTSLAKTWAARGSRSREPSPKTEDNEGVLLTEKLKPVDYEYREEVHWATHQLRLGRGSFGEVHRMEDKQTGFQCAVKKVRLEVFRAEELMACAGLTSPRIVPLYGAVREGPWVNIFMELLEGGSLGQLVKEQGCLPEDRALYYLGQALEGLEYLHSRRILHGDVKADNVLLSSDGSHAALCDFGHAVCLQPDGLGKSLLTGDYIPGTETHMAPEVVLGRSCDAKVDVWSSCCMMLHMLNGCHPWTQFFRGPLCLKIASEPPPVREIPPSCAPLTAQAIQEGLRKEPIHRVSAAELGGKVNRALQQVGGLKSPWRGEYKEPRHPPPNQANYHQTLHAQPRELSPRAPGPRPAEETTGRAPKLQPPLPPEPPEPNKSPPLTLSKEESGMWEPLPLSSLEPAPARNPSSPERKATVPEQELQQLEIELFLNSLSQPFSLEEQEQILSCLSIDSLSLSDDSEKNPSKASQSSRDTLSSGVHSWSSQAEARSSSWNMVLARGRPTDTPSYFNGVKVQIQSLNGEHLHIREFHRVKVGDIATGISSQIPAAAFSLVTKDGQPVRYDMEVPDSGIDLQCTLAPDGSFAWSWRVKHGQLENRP

SMILES | Ki [1] [nM] | IC50 [2] [nM] | IC50 [3] [nM]
Cc1ccc(-c2cccc(C#C[C@]3(O)CCN(C)C3=O)c2)nc1C(N)=O [Example 133, 6-[3-[2-[(3R)-3-hydroxy-1-methyl-2-oxo-pyrrolidin-3-yl]ethynyl]phenyl]-3-methyl-pyridine-2-carboxamide] | 0.18 | 160 | ≥ 2000
COCCNc1ncc(-c2cc(C#C[C@]3(O)CCN(C)C3=O)ccc2F)nc1C(N)=O [Example 134, 6-[2-fluoro-5-[2-[(3R)-3-hydroxy-1-methyl-2-oxo-pyrrolidin-3-yl]ethynyl]phenyl]-3-(2-methoxyethylamino) pyrazine-2-carboxamide] | 0.09 | 45.4 | ≥ 2000
CN1CC[C@@](O)(C#Cc2cccc(-c3cc(C(F)(F)F)cc(C(N)=O)n3)c2)C1=O [Example 135, 6-[3-[2-[(3R)-3-hydroxy-1-methyl-2-oxo-pyrrolidin-3-yl]ethynyl]phenyl]-4-(trifluoromethyl) pyridine-2-carboxamide] | 0.53 | 147 | ≥ 2000
COc1cc(-c2cccc(C#C[C@]3(O)CCN(C)C3=O)c2)nc(C(N)=O)n1 [Example 136, 4-[3-[2-[(3R)-3-hydroxy-1-methyl-2-oxo-pyrrolidin-3-yl]ethynyl]phenyl]-6-methoxy-pyrimidine-2-carboxamide] | 0.5 | 152 | ≥ 2000
Cc1nnc([C@](C)(O)C#Cc2cccc(-c3nc(C(N)=O)cc(-c4ccnn4C)n3)c2)o1 [Example 137, 2-[3-[(3R)-3-hydroxy-3-(5-methyl-1,3,4-oxadiazol-2-yl)but-1-ynyl]phenyl]-6-(2-methylpyrazol-3-yl)pyrimidine-4-carboxamide] | 3.68 | 268 | ≥ 20000
Cc1nccn1-c1cc(C(N)=O)nc(-c2cccc(C#C[C@]3(O)CCN(C)C3=O)c2)n1 [Example 141, 2-[3-[2-[(3R)-3-hydroxy-1-methyl-2-oxo-pyrrolidin-3-yl]ethynyl]phenyl]-6-(2-methylimidazol-1-yl) pyrimidine-4-carboxamide] | 0.37 | 328 | ≥ 20000
CN1CC[C@@](O)(C#Cc2cccc(-c3ncc(N[C@H]4CCOC4)c(C(N)=O)n3)c2)C1=O [Example 142, 2-[3-[2-[(3R)-3-hydroxy-1-methyl-2-oxo-pyrrolidin-3-yl]ethynyl]phenyl]-5-[[(3S)-tetrahydrofuran-3-yl]amino] pyrimidine-4-carboxamide] | 0.24 | 14.8 | ≥ 20000
CN1CC[C@@](O)(C#Cc2cccc(-c3ncc(N[C@@H]4CCOC4)c(C(N)=O)n3)c2)C1=O [Example 143, 2-[3-[2-[(3R)-3-hydroxy-1-methyl-2-oxo-pyrrolidin-3-yl]ethynyl]phenyl]-5-[[(3R)-tetrahydrofuran-3-yl]amino] pyrimidine-4-carboxamide] | 0.05 | 8.12 | ≥ 20000
CN1CC[C@@](O)(C#Cc2cccc(-c3cc(-c4ccnn4C)cc(C(N)=O)n3)c2)C1=O [Example 144, 6-[3-[2-[(3R)-3-hydroxy-1-methyl-2-oxo-pyrrolidin-3-yl]ethynyl]phenyl]-4-(2-methylpyrazol-3-yl) pyridine-2-carboxamide] | 0.69 | 199 | ≥ 2000
CN1CC[C@@](O)(C#Cc2cccc(-c3ncc(N)c(C(N)=O)n3)c2)C1=O [Example 145, 5-amino-2-[3-[2-[(3R)-3-hydroxy-1-methyl-2-oxo-pyrrolidin-3-yl]ethynyl]phenyl]pyrimidine-4-carboxamide] | 0.05 | 38 | ≥ 2000
CN1CC[C@@](O)(C#Cc2cccc(-c3ncc(NCC(F)(F)F)c(C(N)=O)n3)c2)C1=O [Example 146, 2-[3-[2-[(3R)-3-hydroxy-1-methyl-2-oxo-pyrrolidin-3-yl]ethynyl]phenyl]-5-(2,2,2-trifluoroethylamino) pyrimidine-4-carboxamide] | 0.37 | 11.6 | ≥ 20000
COC[C@@H](C)Nc1ccc(-c2cc(C#C[C@]3(O)CCN(C)C3=O)ccc2F)nc1C(N)=O [Example 148, 6-[2-fluoro-5-[2-[(3R)-3-hydroxy-1-methyl-2-oxo-pyrrolidin-3-yl]ethynyl]phenyl]-3-[[(1R)-2-methoxy-1-methyl-ethyl]amino] pyridine-2-carboxamide] | 0.19 | 52.4 | ≥ 2000
COC[C@H](C)Nc1ccc(-c2cc(C#C[C@]3(O)CCN(C)C3=O)ccc2F)nc1C(N)=O [Example 149, 6-[2-fluoro-5-[2-[(3R)-3-hydroxy-1-methyl-2-oxo-pyrrolidin-3-yl]ethynyl]phenyl]-3-[[(1S)-2-methoxy-1-methyl-ethyl]amino]pyridine-2-carboxamide] | 0.88 | 51.1 | ≥ 2000
Cc1nnc([C@](C)(O)C#Cc2cccc(-c3nc(C(N)=O)cc(-n4nccc4C)n3)c2)o1 [Example 150] | 0.99 | 628 | > 2000
Cc1cc(C(N)=O)nc(-c2cccc(C#C[C@]3(O)CCN(C)C3=O)c2)c1F [Example 151, 5-fluoro-6-[3-[2-[(3R)-3-hydroxy-l-methyl-2-oxo-pyrrolidin-3-yl]ethynyl]phenyl]-4-methyl-pyridine-2-carboxamide] | 0.67 | 396 | > 2000
CN1CC[C@@](O)(C#Cc2cc(-c3ccc(N)c(C(N)=O)n3)ccc2F)C1=O [Example 152, 3-amino-6-[4-fluoro-3-[2-[(3R)-3-hydroxy-l-methyl-2-oxo-pyrrolidin-3-yl]ethynyl]phenyl] pyridine-2-carboxamide] | < 0.05 | 46 | > 2000
COCCNc1cnc(-c2cc(C#C[C@]3(O)CCN(C)C3=O)c(F)cc2F)nc1C(N)=O [Example 153, 2-[2,4-difluoro-5[2-[(3R)-3-hydroxy-1-methyl-2-oxo-pyrrolidin-3-yl]ethynyl]phenyl]-5-(2-methoxyethylamino) pyrimidine-4-carboxamide] | 0.1 | 45 | > 2000
Cc1cn[nH]c1-c1cc(C(N)=O)nc(-c2cccc(C#C[C@]3(O)CCN(C)C3=O)c2)n1 [Example 155, 2-[3-[2-[(3R)-3-hydroxy-l-methyl-2-oxo-pyrrolidin-3-yl]ethynyl]phenyl]-6-(4-methyl-1H-pyrazol-5-yl) pyrimidine-4-carboxamide] | < 0.05 | 277 | > 2000
Cc1cc(C(N)=O)nc(-c2cc(C#C[C@]3(O)CCN(C)C3=O)ccc2F)c1 [Example 158, 6-[2-fluoro-5-[2-[(3R)-3-hydroxy-1-methyl-2-oxo-pyrrolidin-3-yl]ethynyl]phenyl]-4-methyl-pyridine-2-carboxamide] | 0.06 | 63 | > 2000
CN1CC[C@@](O)(C#Cc2cccc(-c3cc4c(C(F)(F)F)c[nH]c4c(C(N)=O)n3)c2)C1=O [Example 159, 5-[3-[2-[(3R)-3-hydroxy-l-methyl-2-oxo-pyrrolidin-3-yl]ethynyl]phenyl]-3-(trifluoromethyl)-1H-pyrrolo [2,3-c]pyridine-7-carboxamide] | < 0.05 | 73 | > 2000
CN1CC[C@@](O)(C#Cc2cc(-c3cccc(C(N)=O)n3)c3ncsc3c2)C1=O [Example 160] | 0.5 | 416 | > 2000
CN1CC[C@@](O)(C#Cc2cc(F)cc(-c3nc(C(N)=O)cn4ccnc34)c2)C1=O [Example 161, 8-[3-fluoro-5-[2-[(3R)-3-hydroxy-l-methyl-2-oxo-pyrrolidin-3-yl]ethynyl]phenyl]imidazol [1,2-a]pyrazine-6-carboxamide] | 0.33 | 445 | > 2000
CN1CC[C@@](O)(C#Cc2cccc(-c3cc(OC(F)F)cc(C(N)=O)n3)c2)C1=O [Example 162, 4-(difluoromethoxy)-6-[3-[2-[(3R)-3-hydroxy-l-methyl-2-oxo-pyrrolidin-3-yl]ethynyl]phenyl]pyridine-2-carboxamide] | < 0.05 | 67 | > 2000
Cc1cc(C(N)=O)nc(-c2ccc(F)c(C#C[C@]3(O)CCN(C)C3=O)c2)c1 [Example 164, 6-[4-fluoro-3-[2-[(3R)-3-hydroxy-1-methyl-2-oxo-pyrrolidin-3-yl]ethynyl]phenyl]-4-methyl-pyridine-2-carboxamide] | < 0.05 | 62 | > 2000
Cc1ncc(-c2cccc(C#C[C@]3(O)CCN(C)C3=O)c2)nc1C(N)=O [Example 165, 6-[3-[2-[(3R)-3-hydroxy-1-methyl-2-oxo-pyrrolidin-3-yl]ethynyl]phenyl]-3-methyl-pyrazine-2-carboxamide] | 0.08 | 180 | > 2000
Cc1ccn(-c2cc(C(N)=O)nc(-c3cccc(C#C[C@]4(O)CCN(C)C4=O)c3)n2)n1 [Example 166, 2-[3-[2-[(3R)-3-hydroxy-1-methyl-2-oxo-pyrrolidin-3-yl]ethynyl]phenyl]-6-(3-methylpyrazol-1-yl)pyrimidine-4-carboxamide] | < 0.05 | 59 | > 2000
